These results are taken from US9695200B2, “Heterocyclic ITK inhibitors for treating inflammation and cancer” (Confluence Life Sciences, Inc., priority 2015, dated 2017).

One test concerns the target ITK (Homo sapiens (Human), UniProt Q08881). In words: ITK inhibitor binding potency (LanthaScreen competitive binding assay). As to conditions: TR-FRET tracer-236 displacement, 10 nM ITK; pre-incubation condition not given; read-out: ITK Inhibition IC50. An excerpt: The ability of candidate compounds to interact with ITK is quantitated by a competitive binding assay using the LanthaScreen technology developed by Life Technologies. This assay is based on the binding of a proprietary, Alexa Fluor® 647-labeled, ATP-competitive kinase inhibitor (kinase tracer-236) to the ITK expression construct in the presence of a Europium-conjugated antibody, resulting in a FRET (fluorescence resonance energy transfer) signal. Displacement of the kinase tracer by compound results in a lower emission ratio upon excitation of the Europium chelate. Candidate compounds are designed as potential irreversible inhibitors of ITK, capable of ligating to an active site cysteine residue resulting in time dependent covalent binding. The time dependent nature of irreversible inhibition is investigated by performing the binding assay with and without a pre-incubation of compound and ITK. […] The inhibitory potency of candidate compounds is measured in 20 mM HEPES pH 7.5, 10 mM MgCl2, 0.01% BSA, 0.0005% Tween-20, and 2% DMSO in the presence of 10 nM ITK, 2 nM Eu-anti-GST antibody, and 50 nM kinase tracer-236 using a 384-well plate format. Background signal is defined in the absence of ITK and uninhibited signal is defined in the presence of vehicle (2% DMSO) alone. Compounds were evaluated in an 11 point dose-response ranging from 20 uM to 0.34 nM. The binding assays are performed under two preincubation conditions to evaluate time dependence of inhibition. For the pre-incubation assay, ITK and Eu-anti-GST antibody are pre-incubated with compound or vehicle for two hours prior to the addition of kinase tracer. The non-preincubated assay is run under conditions where ITK and Eu-anti-GST antibody are added to a mixture of compound and kinase tracer. IC50 values of compounds are determined using a 4 parameter logistical fit of emission ratio as a function of the concentration of compound.

In test [1] the test system is phospho-PLCγ1 in Jurkat cells. In words: ITK target modulation PLC-γ assay (phospho-PLCγ1, αCD3-stimulated Jurkat cells). It counts as cell-based, human. As to conditions: Homo sapiens, 1 hour compound incubation, αCD3 Dynabeads stimulation 8 minutes, MSD phospho-PLCγ1, read-out: PLC-γ Inhibition IC50. The procedure: Jurkat cells, an immortalized human T-lymphocyte cell line, were maintained in RPMI media, 10% FBS, 1% pen/strep/glutamine (growth media). Cells were plated in growth media plus 50 μM β-mercaptoethanol at 400,000 cells per well of a 96 well plate.
Compounds were serially diluted into DMSO, and then into media to concentrations 10× that of the final assay concentration. Compounds were then added to the cells with the final assay DMSO concentration being 0.1%. Cells were incubated for 1 hour at 37° C.
Following compound incubation, αCD3 Dynabeads were added at 1 bead/cell to each assay well and incubated at 37° C. for 7 minutes. Unstimulated control wells received media only. The plate was then placed on a 96-well magnetic plate for an additional 60 seconds (total assay stimulation time equals 8 minutes). The plate was then dumped and gently patted dry on a paper towel. 50 μl of complete Meso Scale Discovery (MSD) Lysis buffer was then added to each well. Samples were assayed for phospho-PLCγ1 using Meso Scale Discovery technology.
The assay stimulation time has been optimized for detection of Itk kinase-mediated phosphorylation of PLCγ1. The timing and detection reagents for this assay could be adjusted to capture phosphorylation events upstream (e.g., phospho-ZAP70) or downstream of the Itk/PLCγ1 node, provided the appropriate phospho-specific antibodies are available for building of an MSD assay.

Where only a bound is given, the exact number is not on record here.

Sequence of ITK (Q08881 whole entry): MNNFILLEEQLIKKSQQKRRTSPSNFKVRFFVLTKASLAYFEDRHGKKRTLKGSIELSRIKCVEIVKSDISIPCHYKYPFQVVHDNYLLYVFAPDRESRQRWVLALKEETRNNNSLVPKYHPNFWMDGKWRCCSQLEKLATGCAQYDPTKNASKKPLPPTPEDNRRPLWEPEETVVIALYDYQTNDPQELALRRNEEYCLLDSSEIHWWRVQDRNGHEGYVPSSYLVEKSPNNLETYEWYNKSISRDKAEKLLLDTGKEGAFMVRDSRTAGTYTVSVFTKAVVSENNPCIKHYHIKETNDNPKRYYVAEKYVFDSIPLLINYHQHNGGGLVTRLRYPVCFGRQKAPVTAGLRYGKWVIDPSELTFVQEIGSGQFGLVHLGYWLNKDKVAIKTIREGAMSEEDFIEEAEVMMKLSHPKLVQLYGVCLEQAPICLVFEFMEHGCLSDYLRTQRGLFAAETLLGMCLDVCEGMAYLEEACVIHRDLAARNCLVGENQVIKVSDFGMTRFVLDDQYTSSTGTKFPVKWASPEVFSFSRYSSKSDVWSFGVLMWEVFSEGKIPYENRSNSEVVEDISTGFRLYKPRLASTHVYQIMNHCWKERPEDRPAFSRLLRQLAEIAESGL

Take `CN(C)C/C=C/C(=O)Nc1cccc(-c2cnc3[nH]cc(-c4cccnc4)c3c2)c1` [Example 84, (E)-4-(dimethylamino)-N-(3-(3-(pyridin-3-yl)-1H-pyrrolo[2,3-b]pyridin-5-yl)phenyl)but-2-enamide]: the figures for the 50% inhibitory concentration (IC50) (on ITK; in test [1]) were at most 1 µM and 1 to 5 µM, respectively.

Turning to `C=CC(=O)Nc1cc(-c2cnc3[nH]cc(-c4ccnc(OC)c4)c3c2)cc(OC)n1` [Example 40, N-(6-methoxy-4-(3-(2-methoxypyridin-4-yl)-1H-pyrrolo[2,3-b]pyridin-5-yl)pyridin-2-yl)acrylamide], the 50% inhibitory concentration (IC50) on ITK is at most 1 µM.

As to `C=CC(=O)NC1CN(c2cnc3[nH]cc(-c4ccccc4)c3c2)C1` [Example 1, N-(1-(3-Phenyl-1H-pyrrolo[2,3-b]pyridin-5-yl)azetidin-3-yl)acrylamide], the IC50 at ITK is at most 1 µM; in test [1] it was over 5 µM.

`C=CC(=O)Nc1cc(-c2cnc3[nH]cc(-c4ccnc(OC)c4)c3c2)cc(C(F)(F)F)c1` [Example 11, N-(3-(3-(2-Methoxypyridin-4-yl)-1H-pyrrolo[2,3-b]pyridin-5-yl)-5-(trifluoromethyl)phenyl)acrylamide]: the values for the IC50 (at ITK; in test [1]) were at most 1 µM and under 1 µM, respectively.

In the case of `C=CC(=O)NC1CN(c2cnc3[nH]cc(-c4ccncc4)c3c2)C1` [Example 10, N-(1-(3-(Pyridin-4-yl)-1H-pyrrolo[2,3-b]pyridin-5-yl)azetidin-3-yl)acrylamide], the results for the IC50 (at ITK; in test [1]) were at most 1 µM and over 5 µM, respectively.

On to `C=CC(=O)NC1CN(c2cnc3[nH]cc(-c4ccc(OC)nc4)c3c2)C1` [Example 3, N-(1-(3-(6-Methoxypyridin-3-yl)-1H-pyrrolo[2,3-b]pyridin-5-yl)azetidin-3-yl)acrylamide], for which the IC50 at ITK is at most 1 µM.

`COc1cc(-c2c[nH]c3ncc(-c4cccc(NC(=O)/C(C#N)=C/C(C)C)c4)cc23)ccn1` [Example 87, (E)-2-cyano-N-(3-(3-(2-methoxypyridin-4-yl)-1H-pyrrolo[2,3-b]pyridin-5-yl)phenyl)-4-methylpent-2-enamide]: the half-maximal inhibitory concentration (IC50) at ITK was at most 1 µM; in test [1], over 5 µM.

For `COc1cc(NC(=O)/C=C/CN(C)C)cc(-c2cnc3[nH]cc(-c4ccnc(OC)c4)c3c2)c1` [Example 76, (E)-4-(dimethylamino)-N-(3-methoxy-5-(3-(2-methoxypyridin-4-yl)-1H-pyrrolo[2,3-b]pyridin-5-yl)phenyl)but-2-enamide], the 50% inhibitory concentration (IC50) at ITK is at most 1 µM; in test [1] it was under 1 µM.

`O=C(/C=C/CN1CCOCC1)Nc1cccc(-c2cnc3[nH]cc(-c4ccncc4)c3c2)c1` [Example 23, (E)-4-morpholino-N-(3-(3-(pyridin-4-yl)-1H-pyrrolo[2,3-b]pyridin-5-yl)phenyl)but-2-enamide]: the half-inhibitory concentration (IC50) at ITK was at most 1 µM; in test [1], 1 to 5 µM.

For `N#CN[C@H]1CCN(c2cnc3[nH]cc(-c4ccncc4)c3c2)C1` [Example 18, (S)-N-(1-(3-(pyridin-4-yl)-1H-pyrrolo[2,3-b]pyridin-5-yl)pyrrolidin-3-yl)cyanamide], the half-maximal inhibitory concentration (IC50) on ITK was at most 1 µM.

With `C=CC(=O)Nc1cncc(-c2cnc3[nH]cc(-c4ccncc4)c3c2)c1` [Example 16, N-(5-(3-(pyridin-4-yl)-1H-pyrrolo[2,3-b]pyridin-5-yl)pyridin-3-yl)acrylamide], the IC50 at ITK is at most 1 µM.

With `C=CC(=O)Nc1cc(-c2cnc3[nH]cc(-c4ccnc(OC)c4)c3c2)cc(-c2cnn(C)c2)c1` [Example 80, N-(3-(3-(2-methoxypyridin-4-yl)-1H-pyrrolo[2,3-b]pyridin-5-yl)-5-(1-methyl-1H-pyrazol-4-yl)phenyl)acryl-amide], the IC50 in test [1] was under 1 µM.

Consider `C=CC(=O)Nc1cc(-c2cnc3[nH]cc(-c4ccc(F)nc4)c3c2)cc(C(F)(F)F)c1` [Example 57, N-(3-(3-(6-fluoropyridin-3-yl)-1H-pyrrolo[2,3-b]pyridin-5-yl)-5-(trifluoromethyl)phenyl)acryl-amide], for which the 50% inhibitory concentration (IC50) in test [1] was under 1 µM.

As to `C=CC(=O)NC1CN(c2cnc3[nH]cc(-c4ccnc(OC)c4)c3c2)C1` [Example 2, N-(1-(3-(2-Methoxypyridin-4-yl)-1H-pyrrolo[2,3-b]pyridin-5-yl)azetidin-3-yl)acrylamide], the IC50 on ITK was at most 1 µM.

For `C=CC(=O)Nc1cccc(-c2cnc3[nH]cc(-c4ccc(=O)n(CC5CC5)c4)c3c2)c1` [Example 50, N-(3-(3-(1-(cyclopropyl-methyl)-6-oxo-1,6-dihydropyridin-3-yl)-1H-pyrrolo[2,3-b]pyridin-5-yl)phenyl)acryl-amide], the IC50 in test [1] is under 1 µM.

Regarding `C=CC(=O)Nc1cc(OC)cc(-c2cnc3[nH]cc(-c4ccncc4)c3c2)c1` [Example 22, N-(3-methoxy-5-(3-(pyridin-4-yl)-1H-pyrrolo[2,3-b]pyridin-5-yl)phenyl)acryl-amide], the IC50 in test [1] was under 1 µM.

For the compound `COC/C=C/C(=O)Nc1cccc(-c2cnc3[nH]cc(-c4ccnc(OC)c4)c3c2)c1` [Example 65, (E)-4-methoxy-N-(3-(3-(2-methoxypyridin-4-yl)-1H-pyrrolo[2,3-b]pyridin-5-yl)phenyl)but-2-enamide], in test [1], the IC50 was over 5 µM.

`C=CC(=O)Nc1cccc(-c2cnc3[nH]cc(-c4ccncc4)c3c2)c1` [Example 7, N-(3-(3-(pyridin-4-yl)-1H-pyrrolo[2,3-b]pyridin-5-yl)phenyl)acrylamide]: the half-maximal inhibitory concentration (IC50) at ITK was over 1 µM.

As to `C=CC(=O)Nc1cccc(-c2cnc3[nH]cc(-c4cc(NC)ncn4)c3c2)c1` [Example 56, N-(3-(3-(6-(methylamino)pyrimidin-4-yl)-1H-pyrrolo[2,3-b]pyridin-5-yl)phenyl)acryl-amide], in test [1], the 50% inhibitory concentration (IC50) lay in the range of 1 to 5 µM.

For `C=CC(=O)Nc1cccc(-c2cnc3[nH]cc(-c4ccnc(NC)c4)c3c2)c1` [Example 32, N-(3-(3-(2-(methylamino)pyridin-4-yl)-1H-pyrrolo[2,3-b]pyridin-5-yl)phenyl)acryl-amide], the IC50 in test [1] is under 1 µM.

`C=CC(=O)Nc1cc(-c2cnc3[nH]cc(-c4cccnc4)c3c2)cc(C(F)(F)F)c1` [Example 59, N-(3-(3-(pyridin-3-yl)-1H-pyrrolo[2,3-b]pyridin-5-yl)-5-(trifluoromethyl)phenyl)acryl-amide]: the concentration for half-maximal inhibition (IC50) in test [1] is under 1 µM.

As to `C=CC(=O)Nc1cccc(-c2cnc3[nH]cc(-c4cccc5ncccc45)c3c2)c1` [Example 54, N-(3-(3-(quinolin-5-yl)-1H-pyrrolo[2,3-b]pyridin-5-yl)phenyl)acryl-amide], the IC50 in test [1] lay in the range of 1 to 5 µM.

Turning to `C=CC(=O)Nc1cncc(-c2cnc3[nH]cc(-c4ccnc(F)c4)c3c2)c1` [Example 27, N-(5-(3-(2-fluoropyridin-4-yl)-1H-pyrrolo[2,3-b]pyridin-5-yl)pyridin-3-yl)acrylamide], the concentration for half-maximal inhibition (IC50) on ITK was at most 1 µM.

For `C=CC(=O)Nc1cc(-c2cnc3[nH]cc(-c4ccnc(F)c4)c3c2)cc(C(F)(F)F)c1` [Example 61, N-(3-(3-(2-fluoropyridin-4-yl)-1H-pyrrolo[2,3-b]pyridin-5-yl)-5-(trifluoromethyl)phenyl)acryl-amide], the IC50 in test [1] is under 1 µM.

Turning to `C=CC(=O)Nc1cccc(-c2cnc3[nH]cc(-c4cc(OC)nc(C(F)(F)F)c4)c3c2)c1` [Example 31, N-(3-(3-(2-methoxy-6-(trifluoromethyl)pyridin-4-yl)-1H-pyrrolo[2,3-b]pyridin-5-yl)phenyl)acryl-amide], the half-maximal inhibitory concentration (IC50) in test [1] is over 5 µM.

Take `C=CC(=O)Nc1cccc(-c2cnc3[nH]cc(-c4ccnc(NC)n4)c3c2)c1` [Example 91, N-(3-(3-(2-(methylamino)pyrimidin-4-yl)-1H-pyrrolo[2,3-b]pyridin-5-yl)phenyl)acryl-amide]: the IC50 in test [1] is under 1 µM.

As for `C=CC(=O)Nc1cccc(-c2cnc3[nH]cc(-c4ccnc5[nH]ccc45)c3c2)c1` [Example 62, N-(3-(1H,1′H-[3,4′-bipyrrolo[2,3-b]pyridin]-5-yl)phenyl)acryl-amide], in test [1], the half-maximal inhibitory concentration (IC50) is under 1 µM.
